How the values were obtained:
Experiment in all cases: GRmax, 72 h; higher = less effect;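 further: breast cell lines in 384-well plates, nine doses across a 10^4 range, Dye Drop imaging of viable cells vs DMSO and time-zero plates, GR 0 means no net growth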
[1] = test system: MCF10A
[2] = test system: HCC1419
[3] = test system: PDX1258
[4] = test system: HCC1143
[5] = test system: HCC1395
[6] = test system: BT549
[7] = test system: EVSAT
[8] = test system: MDAMB231
[9] = test system: SUM1315
[10] = test system: HCC70

Structure (SMILES)	GRmax, 72 h [1] [GR]	GRmax, 72 h [2] [GR]	GRmax, 72 h [3] [GR]	GRmax, 72 h [4] [GR]	GRmax, 72 h [5] [GR]	GRmax, 72 h [6] [GR]	GRmax, 72 h [7] [GR]	GRmax, 72 h [8] [GR]	GRmax, 72 h [9] [GR]	GRmax, 72 h [10] [GR]
CNC(=O)c1cccc(-c2ccc3c(N4CCOC[C@@H]4C)nc(N4CCOC[C@@H]4C)nc3n2)c1 [AZD2014] (max 10 µM)	0.183	-0.12	-0.118	0.182	0.274	0.089	-0.21	0.241	0.0994	0.0453
COc1cc(N2CCN(C)CC2)ccc1Nc1ncc2c(n1)N(C)c1ccccc1C(=O)N2CC(F)(F)F [FMF-03-146-1]	0.99	0.805	1.2	0.815	0.64	0.839	0.994	0.874	0.824	0.926
CCOc1cc2ncc(C#N)c(Nc3ccc(OCc4ccccn4)c(Cl)c3)c2cc1NC(=O)/C=C/CN(C)C [Neratinib/HKI272] (max 3.162 µM)	0.0959	-0.501	0.203	0.0791	0.0167	0.208	0.649	-0.0957	0.114	0.0595
Cc1nc(-c2cn3c(n2)-c2ccc(-c4cnn(C(C)(C)C(N)=O)c4)cc2OCC3)n(C(C)C)n1 [Taselisib/GDC0032] (max 10 µM)	0.0593	-0.405	0.106	-0.0942	-0.0177	0.095	-0.535	0.0709	0.0942	-0.685
COc1ccc2c(c1)[C@]1(C[C@H]1c1ccc3c(/C=C/c4ccc(CN5C[C@@H](C)O[C@@H](C)C5)cc4)n[nH]c3c1)C(=O)N2	-0.0342	0.32	-0.0552	0.0518	-0.178	0.0324	-0.0524	0.0653	-0.232	-0.31
C=CCn1c(=O)c2cnc(Nc3ccc(N4CCN(C)CC4)cc3)nc2n1-c1cccc(C(C)(C)O)n1 [AZD1775] (max 10 µM)	0.0997	-0.0276	-0.46	-0.458	-0.587	-0.456	-0.39	-0.282	-0.747	-0.75

— the supplement of paper PMC9663587
